Measured values taken from patent publication US20180030074A1, “PHOSPHONIUM COMPOUND AND PRODUCTION METHOD THEREFOR” (priority 2014, published 2018).

How the values were obtained:
[1] = Mouse biodistribution study; format: in vivo, Slc:ICR mice; details: mice; for accumulation of labeled compound in the myocardium versus adjacent organs: i.v., 60 or 120 minutes after administration, gamma counter, n=4; for ratio of radioactivity accumulations in the myocardium and liver (heart/liver ratio): time point of 60 minutes
Experimental: (§1) The animals used in this measurement were 6-8-week-old male Slc:ICR mice (from Japan SLC, Inc.) (n=4). Each of different physiological saline solutions of the [^18F]-labeled compounds (200 μL, 370-740 kBq) used in this measurement was administered to the awake mice via the caudal vein, and after 60 or 120 minutes of the administration, the mice were euthanized by cervical dislocation under isoflurane anesthesia. After blood was sampled from the heart immediately, the heart, lung, liver, spleen, kidney, small intestine, thigh muscle, thigh bone, and brain were excised and measured for amount of radioactivity by a γ counter. The weights of the excised organs were measured, and on that basis, the accumulation rates per gram of the organs with respect to dose (% dose/g of organ, % ID/g) were calculated as indicators for accumulation of the chemical compounds used (n=4).

[2] = test system: myocardium; test: Mouse PET/CT imaging; format: in vivo, Slc:ICR mice; details: mice, i.v. caudal vein; for accumulation of radioactivity in the myocardium (PET/CT images): imaged 60 minutes after administration for 10 minutes; for contrast of myocardial images: PET/CT 60 minutes after administration
Experimental: The animals used in this measurement were 6-10-week-old male Slc:ICR mice (from Japan SLC, Inc.). […] Then, the mice were fixed under isoflurane anesthesia (2%, 1.5 mL/min.), and after 60 minutes of the administration, the whole bodies of the mice were imaged by small-animal PET (ClairvivoPET produced by Shimadzu Corporation) for 10 minutes. Subsequently, while the mice were kept fixed, their whole bodies were imaged by small-animal CT (ClairvivoCT produced by Shimadzu Corporation). The PET data were reconstructed by 3D-DRAMA, and the pixel values of the obtained PET images were converted to SUV to generate SUV images. These images were fused with CT images to produce fused images.

[3] = comparison values quoted without source or species; cited from earlier work
[4] = Rat biodistribution study; format: in vivo, Wistar rats; details: rats
Experimental: as §1
The biodistribution study of [^18F]TAP-018 in rats was conducted by the same procedure as in Test Example 2 using 6-week-old male Wistar rats (from Japan SLC, Inc.) (n=4). The results are summarized in a bar graph (FIG. 4). […] This value is about ten times higher than the value of 1.5 for [^18F]FBnTP which has been used as a gold standard, and is sufficiently higher than the value of 9.2 for [^18F]FTPP which is currently under clinical study.

[5] = test system: myocardium; test: Small-animal PET study in rats; format: in vivo, Wistar rats; details: i.v., PET 0 to 120 minutes
Experimental: The myocardial imaging study of [^18F]TAP-018 in rats was conducted using 6-week-old male Wistar rats. 200 μL (7.83-9.66 MBq) of a physiological saline solution of the test compound [^18F]TAP-018 was administered via the caudal vein to the rats fixed under isoflurane anesthesia (2%, 1.5 mL/min.), and then the whole bodies of the rats were imaged by small-animal PET at time points from 0 to 120 minutes after the administration. Subsequently, while the rats were kept fixed, their whole bodies were imaged by small-animal CT. The PET data were reconstructed by 3D-DRAMA, and the pixel values of the obtained PET images were converted to SUV to generate SUV images. These images were fused with CT images to produce fused images. Further, the locations of the myocardium, lung and liver were identified based on the fused images, and regions of interest (ROI) were drawn to calculate respective SUVavg values.

[6] = background statement; cited from earlier work

Row | SMILES | accumulation of labeled compound in the myocardium versus adjacent organs [1] | ratio of radioactivity accumulations in the myocardium and liver (heart/liver ratio) [1] | accumulation of radioactivity in the myocardium (PET/CT images) [2] | heart/liver ratio (comparison values of reference agents) [3] | accumulation in the heart ([4]; i.v., n=4) | heart/liver ratio ([4]; time point of 60 minutes) | contrast of myocardial images [2] | accumulation of radioactivity in the heart (radioactivity-time curve) [5] | disappearance of radioactivity from the liver (radioactivity-time curve) [5] | accumulation in liver relative to myocardium [6]
1 | [18F]CCOc1ccc([P+](Cc2ccccc2)(c2ccccc2)c2ccccc2)cc1 [[^18F]TAP-001, Benzyl-[4-(2-[^18F]fluoroethoxy)phenyl]-diphenylphosphonium bromide] | more highly accumulates in the myocardium than in other adjacent organs | 2.70 | accumulation of radioactivity in the myocardium was observed | – | – | – | – | – | – | –
2 | [18F]c1ccc([P+](c2ccccc2)(c2ccccc2)c2ccccc2)cc1 [[^18F]FTPP] | – | – | – | 9.2 | – | – | – | – | – | –
3 | [18F]CCOc1cccc([P+](Cc2ccccc2)(c2ccccc2)c2ccccc2)c1.[Br-] [[^18F]TAP-018, Benzyl[3-(2-[^18F]fluoroethoxy)phenyl]-diphenylphosphonium bromide] | more highly accumulates in the myocardium than in other adjacent organs | 9.40 | accumulation of radioactivity in the myocardium was observed | – | highly accumulated in the heart | about 15.5 | high-contrast myocardial images were obtained | a high level of radioactivity accumulated in the heart immediately after the administration | radioactivity disappeared rapidly from the liver until 10 minutes after the administration | –
4 | COc1ccc(C[P+](c2ccccc2)(c2ccccc2)c2cccc(OCC[18F])c2)cc1 [[^18F]TAP-019, [3-(2-[^18F]fluoroethoxy)phenyl]-(4-methoxyphenyl)methyl-diphenylphosphonium bromide] | more highly accumulates in the myocardium than in other adjacent organs | 4.56 | accumulation of radioactivity in the myocardium was observed | – | – | – | high-contrast myocardial images were obtained | – | – | –
5 | [18F]c1ccc(C[P+](c2ccccc2)(c2ccccc2)c2ccccc2)cc1.[Br-] [[^18F]FBnTP, 4-[^18F]fluorobenzyl-triphenylphosphonium bromide] | – | – | – | 1.5 | – | – | – | – | – | accumulating not only in the myocardium but also in the liver adjacent to the myocardium to the same extent
6 | [18F]CCOc1cccc([P+](CCCc2ccccc2)(c2ccccc2)c2ccccc2)c1.[Br-] [[^18F]TAP-022, [^18F][3-(2-fluoroethoxy)phenyl]-(3-phenylpropyl)-diphenylphosphonium bromide] | more highly accumulates in the myocardium than in other adjacent organs | 4.98 | accumulation of radioactivity in the myocardium was observed | – | – | – | high-contrast myocardial images were obtained | – | – | –
